Paper PMC1142193 (Evidence-based Complementary and Alternative Medicine, 2005)
Entries after “also recorded” stand apart in the source; their conditions may differ.

Molecular target: SARS-CoV 3CL^Pro (Severe acute respiratory syndrome coronavirus, UniProt P0C6U8)
Assay: biochemical
Assay type: biochemical
Details: for IC50: IC50, inhibition of SARS 3CL^Pro activity

Oc1cc(O)c2c(c1)O[C@H](c1ccc(O)c(O)c1)[C@H](O)C2 [EC, epicatechin]
Inhibition of 3CL^Pro activity (in words): did not inhibit | Inhibition of 3CL^Pro activity at concentrations up to 100 µM (in words): not able to inhibit | IC50: ≥ 100 µM

Cn1c(=O)c2[nH]cnc2n(C)c1=O [Theophylline, theophylline, reference compound]
Inhibition of 3CL^Pro activity (in words): did not inhibit; also recorded: did not influence 3CL^Pro activity | Inhibition of 3CL^Pro activity at concentrations up to 100 µM (in words): not able to inhibit

O=C(O[C@@H]1Cc2c(O)cc(O)cc2O[C@@H]1c1ccc(O)c(O)c1)c1cc(O)c(O)c(O)c1 [ECg, epicatechin gallate]
Inhibition of 3CL^Pro activity (in words): did not inhibit | Inhibition of 3CL^Pro activity at concentrations up to 100 µM (in words): not able to inhibit | IC50: ≥ 100 µM

O=c1c(O)cc([C@H]2Oc3cc(O)cc(O)c3C[C@H]2O)cc2c([C@H]3Oc4cc(O)cc(O)c4C[C@H]3O)cc(O)c(O)c12 [TF1, Theaflavin]
Inhibition of 3CL^Pro activity (in words): found to inhibit 3CL^Pro | IC50: 56 µM

Oc1cc(O)c2c(c1)O[C@H](c1cc(O)c(O)c(O)c1)[C@H](O)C2 [EGC, epigallocatechin]
Inhibition of 3CL^Pro activity (in words): did not inhibit | Inhibition of 3CL^Pro activity at concentrations up to 100 µM (in words): not able to inhibit | IC50: ≥ 100 µM

Cn1c(=O)c2c(ncn2C)n(C)c1=O [Caffeine, caffeine, reference compound]
Inhibition of 3CL^Pro activity (in words): did not inhibit; also recorded: did not influence 3CL^Pro activity | Inhibition of 3CL^Pro activity at concentrations up to 100 µM (in words): not able to inhibit
